pIC50: −log10 of the molar value. Like-named read-outs stand apart in the source and are kept apart here.
Key:
[1] = target: T1, MLC kinase (myosin light-chain kinase) (Gallus gallus, UniProt P11799); assay: inhibition of MLC kinase, in vitro enzyme test (32P phosphate incorporation); type: biochemical, chicken (stomach); conditions: for ratio of IC50 C-kinase/IC50 MLC-kinase: selectivity factor calculated from the IC50 values; for MLC kinase inhibition, in words: potency and selectivity vs protein kinase C
T1 construct: MLC kinase was purified from chicken stomach; from tissue; host or cells: chicken stomach (gizzard smooth muscle)

[2] = target: protein kinase C; assay: inhibition of protein kinase C, enzyme test; type: biochemical; conditions: read-out: inhibition of the protein kinases, C-kinase IC50
Experimental: In order to ascertain whether it is a question of a selective inhibition of MLC kinase, the compounds were also investigated in other enzyme tests for protein kinase, including tests for protein kinase C. The results from the PKC test are also given in the following Table I. Furthermore, the Table contains selectivity factors which were calculated by the determination of the ratios of the IC50 values.

[3] = 1 nM MLC kinase, 250 μM ATP, pH 7.2, 20 minutes at 30° C., read-out: inhibition of the protein kinases, MLC-kinase IC50

T1 sequence (P11799 935-1906): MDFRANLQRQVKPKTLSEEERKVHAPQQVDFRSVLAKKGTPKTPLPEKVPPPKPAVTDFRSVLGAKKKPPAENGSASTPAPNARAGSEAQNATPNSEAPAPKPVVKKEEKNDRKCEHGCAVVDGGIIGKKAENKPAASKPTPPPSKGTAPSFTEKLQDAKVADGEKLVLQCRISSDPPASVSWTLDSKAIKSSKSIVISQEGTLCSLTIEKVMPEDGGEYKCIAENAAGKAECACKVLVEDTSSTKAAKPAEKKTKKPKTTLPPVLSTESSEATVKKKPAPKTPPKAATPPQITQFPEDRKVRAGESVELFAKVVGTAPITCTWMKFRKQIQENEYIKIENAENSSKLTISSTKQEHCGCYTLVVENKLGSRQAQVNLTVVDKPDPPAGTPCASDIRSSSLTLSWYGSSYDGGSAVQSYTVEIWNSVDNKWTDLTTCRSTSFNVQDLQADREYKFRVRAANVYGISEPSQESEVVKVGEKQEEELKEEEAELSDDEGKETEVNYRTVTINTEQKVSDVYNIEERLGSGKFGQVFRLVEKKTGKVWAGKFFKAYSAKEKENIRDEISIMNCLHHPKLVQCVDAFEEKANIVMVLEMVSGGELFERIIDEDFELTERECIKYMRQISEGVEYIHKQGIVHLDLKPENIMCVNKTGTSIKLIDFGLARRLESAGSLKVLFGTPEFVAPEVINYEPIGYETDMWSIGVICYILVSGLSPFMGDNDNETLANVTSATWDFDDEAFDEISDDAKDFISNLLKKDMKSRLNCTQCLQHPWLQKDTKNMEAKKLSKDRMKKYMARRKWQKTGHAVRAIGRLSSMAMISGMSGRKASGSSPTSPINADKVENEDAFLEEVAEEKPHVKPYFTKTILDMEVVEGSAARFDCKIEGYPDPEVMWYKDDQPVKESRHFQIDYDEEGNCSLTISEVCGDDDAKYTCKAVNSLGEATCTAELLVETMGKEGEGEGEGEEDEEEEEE

| pIC50 [1, 3] | ratio of IC50 C-kinase/IC50 MLC-kinase [1] | pIC50 [2] | Compound | MLC kinase inhibition, in words [1] | pIC50 [1] |
| --- | --- | --- | --- | --- | --- |
| 7.49 | 0.6 | 7.70 | COc1ccc2c(c1)c1c3c(c4c5cc(Cl)ccc5n(CCC#N)c4c1n2C)C(=O)NC3=O [Example 1n, 3-chloro-13-(2-cyanoethyl)-6,7,12,13-tetrahydro-9-methoxy-12-methyl-5,7-dioxo-5H-indolo[2,3-a]pyrrolo-[3,4-a]carbazole] |  |  |
| 8.28 | 11.3 | 7.23 | O=C1NC(=O)c2c1c1c3ccccc3[nH]c1c1c2c2ccccc2n1CC(O)CO (centres unmarked) [Example 8, 12-(2,3-Dihydroxy-1-propyl)-6,7,12,13-tetrahydro-5,7-dioxo-5H-indolo[2,3-a]pyrrolo[3,4-c]carbazole] |  |  |
| 8.00 | 0.4 | 8.38 | Cn1c2ccc(O)cc2c2c3c(c4c5cc(O)ccc5n(CCC#N)c4c21)C(=O)NC3=O [Example 2f, 12-(2-cyanoethyl)-6,7,12,13-tetrahydro-3,9-dihydroxy-13-methyl-5,7-dioxo-5H-indolo[2,3-a]pyrrolo-[3,4-c]carbazole] |  |  |
| 8.31 | 74 | 6.44 | COc1ccc2c(c1)c1c3c(c4c5ccccc5n(C)c4c1n2CCCN)C(=O)NC3=O [Example 4a, 13-(3-aminopropyl)-6,7,12,13-tetrahydro-3-methoxy-12-methyl-5,7-dioxo-5H-indolo[2,3-a]pyrrolo[3,4-c]-carbazole] | potent and selective inhibitors of MLC kinase |  |
| 6.74 | 0.1 | 7.72 | COc1ccc2c(c1)c1c3c(c4c5cc(OC)ccc5n(CCC#N)c4c1n2C)C(=O)NC3=O [Example 1c, 12-(2-cyanoethyl)-6,7,12,13-tetrahydro-3,9-dimethoxy-13-methyl-5,7-dioxo-5H-indolo[2,3-a]pyrrolo[3,4-c]-carbazole] |  |  |
| 7.66 | 1.6 | 7.44 | Cn1c2ccccc2c2c3c(c4c5ccccc5n(CCCC#N)c4c21)C(=O)NC3=O [Example 1g, 12-(3-cyanopropyl)-6,7,12,13-tetrahydro-13-methyl-5,7-dioxo-5H-indolo[2,3-a]pyrrolo[3,4-c]carbazole] |  |  |
| 8.08 | 3.0 | 7.60 | COc1ccc2[nH]c3c(c4c(c5c6ccccc6n(C)c35)C(=O)NC4=O)c2c1 [Example 7d, 6,7,12,13-tetrahydro-3-methoxy-12-methyl-5,7-dioxo-5H-indolo[2,3-a]pyrrolo[3,4-c]carbazole] |  |  |
| 6.43 | 12 | 5.34 | O=C1NC(=O)c2c1c1c3cc(Br)ccc3[nH]c1c1[nH]c3ccc(Br)cc3c21 [Example 11g, 3,9-dibromo-6,7,12,13-tetrahydro-5,7-dioxo-5H-indolo[2,3-a]pyrrolo[3,4-c]carbazole] |  |  |
| 7.77 | 0.8 | 7.85 | Cn1c2ccccc2c2c3c(c4c5ccccc5n(CC#N)c4c21)C(=O)NC3=O [Example 1e, 12-cyanomethyl-6,7,12,13-tetrahydro-13-methyl-5,7-dioxo-5H-indolo[2,3-a]pyrrolo[3,4-c]carbazole] |  |  |
| 8.24 | 1.3 | 8.15 | O=C1NC(=O)c2c1c1c3cc(O)ccc3[nH]c1c1[nH]c3ccc(O)cc3c21 [Example 2e, 6,7,12,13-tetrahydro-3,9-dihydroxy-5,1-dioxo-5H-indolo[2,3-a]pyrrolo[3,4-c]carbazole] |  |  |
| 7.49 | 7.2 | 6.64 | Cn1c2ccccc2c2c3c(c4c5cc(O)c(O)cc5n(CCC#N)c4c21)C(=O)NC3=O [Example 2b, 13-(2-cyanoethyl)-6,7,12,13-tetrahydro-2,3-dihydroxy-12-methyl-5,7-dioxo-5H-indolo[2,3-a]pyrrolo[3,4-c]-carbazole] |  |  |
| 8.12 | 4.1 | 7.51 | COc1ccc2c(c1)c1c3c(c4c5ccccc5n(CCCN(C)C)c4c1n2C)C(=O)NC3=O [Example 1y, 12-(3-dimethylaminopropyl)-6,7,12,13-tetrahydro-3-methoxy-13-methyl-5,7-dioxo-5H-indolo[2,3-a]pyrrolo-[3,4-c]carbazole] |  |  |
| 7.54 | 0.6 | 7.77 | COc1ccc2c(c1)c1c3c(c4c5cc(OC)ccc5n(CCCC#N)c4c1n2C)C(=O)NC3=O [Example 1r, 12-(3-cyanopropyl)-6,7,12,13-tetrahydro-3,9-dimethoxy-13-methyl-5,7-dioxo-5H-indolo[2,3-a]pyrrolo-[3,4-c]carbazole] |  |  |
| 7.28 | 10 | 6.28 | CN(C)CCCn1c2ccccc2c2c3c(c4c5ccccc5[nH]c4c21)C(=O)NC3=O [Example 7a, 13-(3-dimethylaminopropyl)-6,7,12,13-tetrahydro-5,7-dioxo-5H-indolo[2,3-a]pyrrolo[3,4-c]carbazole] |  |  |
| 7.31 | 0.7 | 7.46 | COc1ccc2c(c1)c1c3c(c4c5ccccc5n(CCC#N)c4c1n2C)C(=O)NC3=O [Example 1b, 12-(2-cyanoethyl)-6,7,12,13-tetrahydro-3-methoxy-13-methyl-5,7-dioxo-5H-indolo[2,3-a]pyrrolo[3,4-c]-carbazole] |  |  |
| 8.92 | 33 | 7.41 | Cn1c2ccccc2c2c3c(c4c5ccccc5n(CCCN)c4c21)C(=O)NC3=O [Example 4, 12-(3-Aminopropyl)-6,7,12,13-tetrahydro-13-methyl-5,7-dioxo-5H-indolo[2,3-a]pyrrolo[3,4-c]carbazole] | potent and selective inhibitors of MLC kinase |  |
| 7.74 | 1.7 | 7.51 | Cn1c2ccc(O)cc2c2c3c(c4c5ccccc5n(CCC#N)c4c21)C(=O)NC3=O [Example 2a, 12-(2-cyanoethyl)-6,7,12,13-tetrahydro-3-hydroxy-13-methyl-5,7-dioxo-5H-indolo[2,3-a]pyrrolo[3,4-c]-carbazole] |  |  |
| 7.35 | 11.1 | 6.30 | CN(C)CCCn1c2ccccc2c2c3c(c4c5ccccc5n(C)c4c21)C(=O)NC3=O [Example 1j, 12-(3-dimethylaminopropyl)-6,7,12,13-tetrahydro-13-methyl-5,7-dioxo-5H-indolo[2,3-a]pyrrolo[3,4-c]-carbazole] |  |  |
| 8.30 | 8 | 7.40 | CN(C)CCCn1c2ccc(O)cc2c2c3c(c4c5ccccc5n(C)c4c21)C(=O)NC3=O [Example 2g, 13-(3-dimethylaminopropyl)-6,7,12,13-tetrahydro-3-hydroxy-12-methyl-5,7-dioxo-5H-indolo[2,3-a]pyrrolo-25 [3,4-c]carbazole] |  |  |
| 7.72 | 1.3 | 7.62 | Cn1c2ccccc2c2c3c(c4c5cc(O)ccc5n(CCC#N)c4c21)C(=O)NC3=O [Example 2, 13-(2-Cyanoethyl)-6,7,12,13-tetrahydro-3-hydroxy-12-methyl-5,7-dioxo-5H-indolo[2,3-a]pyrrolo[3,4-c]-carbazole] |  |  |
| 7.77 | 0.4 | 8.17 | COc1cc2c3c4c(c5c6ccccc6n(C)c5c3n(CCC#N)c2cc1OC)C(=O)NC4=O [Example 1o, 13-(2-cyanoethyl)-6,7,12,13-tetrahydro-2,3-dimethoxy-12-methyl-5,7-dioxo-5H-1-indolo[2,3-a]pyrrolo-[3,4-c]carbazole] |  |  |
| 6.43 | 0.3 | 6.92 | CCN(CC)CC(O)Cn1c2ccccc2c2c3c(c4c5ccccc5n(C)c4c21)C(=O)NC3=O (racemic) [Example 10a, (±)-12-(3-diethylamino-2-hydroxy-1-propyl)-6,7,12,13-tetrahydro-13-methyl-5,7-dioxo-5H-indolo-[2,3-a]pyrrolo[3,4-c]carbazole] |  |  |
| 7.49 | 0.15 | 8.33 | COc1ccc2c(c1)c1c3c(c4c5ccccc5n(C)c4c1n2CCCC#N)C(=O)NC3=O [Example 1q, 13-(3-cyanopropyl)-6,7,12,13-tetrahydro-3-methoxy-12-methyl-5,7-dioxo-5H-indolo[2,3-a]pyrrolo[3,4-c]-carbazole] |  |  |
| 6.89 | 0.4 | 7.30 | Cn1c2ccccc2c2c3c(c4c5ccccc5n(CCCN=[N+]=[N-])c4c21)C(=O)NC3=O [Example 1l, 12-(3-azidopropyl)-6,7,12,13-tetrahydro-13-methyl-5,7-dioxo-5H-indolo[2,3-a]pyrrolo[3,4-c]carbazole] |  |  |
| 7.12 | 2.5 | 6.72 | Cn1c2ccccc2c2c3c(c4c5ccccc5n(CCC[N+](C)(C)C)c4c21)C(=O)NC3=O [Example 3, 12-(3-Dimethylaminopropyl)-6,7,12,13-tetrahydro-13-methyl-5,7-dioxo-5H-indolo[2,3-a]pyrrolo[3,4-c]-carbazole; methiodide] |  |  |

| Compound | pIC50 [1, 3] | ratio of IC50 C-kinase/IC50 MLC-kinase [1] | pIC50 [2] | MLC kinase inhibition, in words [1] | pIC50 [1] |
| --- | --- | --- | --- | --- | --- |
| O=C1NC(=O)c2c1c1c3ccccc3[nH]c1c1[nH]c3ccccc3c21 [Example 11a, 6,7,12,13-tetrahydro-5,7-dioxo-5H-indolo[2,3-a]pyrrolo[3,4-c]carbazole] |  | 4.5 | 5.72 |  | 6.38 |
| 12-(3-dimethylaminopropyl)-6,7,12,13-tetrahydro-3(9)-hydroxy-9(3)-methoxy- 5,7-dioxo-5H-indolo[2,3-a]pyrrolo[3,4-c]carbazole [Example 2d] | 7.80 | 2.4 | 7.42 |  |  |

From patent publication US5945440A, “Indolocarbazole imides and the use thereof” (priority 1992, dated 1999)
